Reference: patent publication US8906925B2, “Pyrido[4,3-B]indoles containing rigid moieties” (Medivation Technologies, Inc., priority 2008, dated 2014)
Values joined by “and” are separate entries in the source; they are usually repeats but may differ in a detail not shown here. Equal values may be shown once.

How the values were obtained:
[1] = tested on: rat mixed cortical cultures; assay: Neurite outgrowth in rat mixed cortical cultures; format: cell-based; settings: 50 nM, 48 h, vs vehicle
Method: Cortical mixed cultures are prepared from E18 Wistar rat embryos. The cortices are dissected out and the tissue was cut to small pieces. The cells are separated by 15-min. incubation with DNase and papain. The cells are collected by centrifugation (1500 rpm, 5 min.). The tissue is triturated with a pipette and the cells are plated using the micro-islet protocol (20 000 cells in […] medium) on poly-L-lysine coated 48 wells, in MEM supplemented with 2 mM glutamine, […] gentamicin, 10% heat-inactivated fetal bovine serum (FBS-HI) and 10% heat-inactivated horse serum (HS-HI). After the cells had attached to the well, 250 μl medium is added to the wells. […] BDNF levels in the conditioned media are determined with a BDNF ELISA using the manufacturers (Promega, BDNF Emax® ImmunoAssay System, catalog number: G7610) instructions.
The cultures are fixed with 4% formaldehyde in 0.01 M PBS for 30 min. and washed once with PBS. […] The immunopositive cells are visualized by a fluorescence microscope equipped with appropriate filter set, and documented by a high resolution image capturing. The number of cells per field (4 field per well) are counted, and the neurite outgrowth was quantified using Image Pro Plus software. […]
Compounds of the invention were evaluated on their effect on neurite outgrowth in rat mixed neuronal cultures. […]

[2] = molecular target: human recombinant serotonin 5-HT2A receptor (Homo sapiens, UniProt P28223); assay: 5-HT2A agonist/antagonist functional assay (cytosolic Ca2+ fluorescence, HEK-293 cells); format: cell-based
From the text: To determine for agonist or antagonist activity of compounds of the invention in functional assays, human recombinant serotonin 5-HT2A receptor expressed in human embryonic kidney (HEK-293) cells (Jerman J C, Brough S J, Gager T, Wood M, Coldwell M C, Smart D and Middlemiss D N, Eur J Pharmacol, 414: 23-30, 2001) or human recombinant serotonin 5-HT7 receptor expressed in CHO cells (Adham, et al. J. Pharmacol. Exp. Ther. 287:508-514, 1998) was used. Cells were suspended in DMEM buffer, and distributed in microplates. For the 5-HT2A assay, a cytoplasmic calcium fluorescent indicator which varies proportionally to the free cytosolic Ca^2+ ion concentration was mixed with probenicid in HBSS buffer complemented with 20 mM Hepes (pH 7.4), added into each well and equilibrated with the cells for 30 min. at 37° C. followed by 30 min. at 22° C. For the 5-HT7 assay, the reaction product was cAMP, detected by HTRF.
To measure 5-HT2A agonist effects, compounds of the invention, reference agonist or HBSS buffer (basal control) was added to the cells and changes in fluorescence intensity were measured using a microplate reader.
The standard reference antagonist was ketanserin (5-HT2A) or mesulergine (5-HT7), which was tested in each experiment at several concentrations to generate a concentration-response curve from which its IC50 value was calculated. […]

Sequence of human recombinant serotonin 5-HT2A receptor (P28223 whole entry): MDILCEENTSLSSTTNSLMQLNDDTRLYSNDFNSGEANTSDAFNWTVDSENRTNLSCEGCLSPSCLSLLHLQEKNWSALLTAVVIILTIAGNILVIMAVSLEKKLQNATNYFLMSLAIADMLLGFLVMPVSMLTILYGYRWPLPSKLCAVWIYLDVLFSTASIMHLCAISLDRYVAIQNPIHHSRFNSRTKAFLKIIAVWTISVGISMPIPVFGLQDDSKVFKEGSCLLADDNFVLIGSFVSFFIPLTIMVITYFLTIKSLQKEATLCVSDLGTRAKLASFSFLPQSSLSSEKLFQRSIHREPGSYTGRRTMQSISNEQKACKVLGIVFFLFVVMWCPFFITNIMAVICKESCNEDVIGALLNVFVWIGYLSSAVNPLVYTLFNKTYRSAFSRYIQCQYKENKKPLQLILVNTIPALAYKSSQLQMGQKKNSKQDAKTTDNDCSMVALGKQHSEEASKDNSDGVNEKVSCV

`C/C(=C\n1c2c(c3cc(Cl)ccc31)CN(C)CC2)c1ccc(F)cc1` [Compound 83, (E)-8-chloro-5-(2-(4-fluorophenyl)prop-1-enyl)-2,3,4,5-tetrahydro-2-methyl-1H-pyrido[4,3-b]indole] was tested, and the “Mean Process+Branch Number (number of branched processes)” value [1] was “significantly increased”, the EC50 [2] was 3100 nM and the IC50 ([2]; vs 3 nM 5-HT) was 970 nM and > 1000 nM.
